Test results reported in ChEMBL document CHEMBL4017471, “Discovery of novel aminobenzisoxazole derivatives as orally available factor IXa inhibitors” (Bioorg Med Chem Lett, 2017).
In brackets after ≈: the same amount, converted by molar mass. Blank lines part the entries; values can stand above or below the compound they belong to. Activity calls are given as the source filed them. The rule behind the calls is not given here.

Tests used:
Coagulation factor X = Coagulation factor X (Homo sapiens, UniProt P00742)
Description: Inhibition of human coagulation factor 10a

Coagulation factor IX [1] = molecular target: Coagulation factor IX (Homo sapiens, UniProt P00740)
[2] = Unbound plasma concentration in human at 10 uM measured after 4 hrs by equilibrium dialysis method; type: ADME, cell-free
Plasma [3] = assay: Anticoagulant activity in human plasma assessed as concentration required to double activated partial thromboplastin time; type: functional
[4] = Apparent permeability of the compound at 5 uM after 5 hrs by PAMPA; type: physicochemical
[5] = Cmax in rat at 1 mg/kg, po administered as cassette dose; type: ADME, organism-based; design: dose 1 mg/kg, route oral; settings: in vivo
Rattus norvegicus [6] = assay: Effect on prothrombin time in rat at 1 to 100 mg/kg, po measured after 2 hrs; type: functional, organism-based
Rattus norvegicus [7] = assay: Anticoagulant activity in po dosed rat assessed as prolongation of activated partial thromboplastin time measured after 2 hrs; type: functional, organism-based
[8] = Volume of distribution at steady state in dog at 0.3 mg/kg, iv; type: ADME, organism-based, Canis lupus familiaris; settings: in vivo, read-out: Vdss
Cytochrome P450 1A2 [9] = molecular target: T1, Cytochrome P450 1A2 (Homo sapiens, UniProt P05177); assay: Inhibition of CYP1A2 in liver microsomes (unknown origin) assessed as formation of acetaminophen from phenacetin in presence of NADPH by LC-MS/MS analysis; type: ADME
T1 sequence (P05177 whole entry): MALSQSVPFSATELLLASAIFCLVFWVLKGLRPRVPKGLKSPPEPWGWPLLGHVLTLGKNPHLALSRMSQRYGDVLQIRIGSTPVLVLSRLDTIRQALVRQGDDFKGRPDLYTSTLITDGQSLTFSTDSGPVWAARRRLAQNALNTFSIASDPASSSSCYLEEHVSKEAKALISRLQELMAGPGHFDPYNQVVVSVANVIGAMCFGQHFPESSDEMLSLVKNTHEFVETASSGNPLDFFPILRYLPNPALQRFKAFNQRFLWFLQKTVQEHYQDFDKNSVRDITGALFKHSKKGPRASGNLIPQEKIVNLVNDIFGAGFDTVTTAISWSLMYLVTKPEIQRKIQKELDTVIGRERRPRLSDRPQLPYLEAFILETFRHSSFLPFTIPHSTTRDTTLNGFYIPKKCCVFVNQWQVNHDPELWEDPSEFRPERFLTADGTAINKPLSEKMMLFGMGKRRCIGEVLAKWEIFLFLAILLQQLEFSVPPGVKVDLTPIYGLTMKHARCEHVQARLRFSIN

[10] = Metabolic stability in human liver microsomes at 1 uM measured after 20 mins in presence of NADP+ by LC-MS/MS method; type: ADME, microsome; settings: read-out: Stability
Cytochrome P450 2C19 = Cytochrome P450 2C19 (Homo sapiens, UniProt P33261); assay: Inhibition of CYP2C19 in liver microsomes (unknown origin) assessed as formation of 4-hydroxymephenytoin from S-mephenytoin in presence of NADPH by LC-MS/MS analysis; type: ADME
[11] = Unbound plasma concentration in dog at 10 uM measured after 4 hrs by equilibrium dialysis method; type: ADME, cell-free, Canis lupus familiaris
Cytochrome P450 3A4 [12] = molecular target: T2, Cytochrome P450 3A4 (Homo sapiens, UniProt P08684); assay: Inhibition of CYP3A4 in liver microsomes (unknown origin) assessed as formation of 1-hydroxymidazolam from midazolam in presence of NADPH by LC-MS/MS analysis; type: ADME
[13] = Volume of distribution at steady state in rat at 1 mg/kg, iv; type: ADME, organism-based; settings: in vivo, read-out: Vdss
[14] = Metabolic stability in dog liver microsomes at 1 uM measured after 20 mins in presence of NADP+ by LC-MS/MS method; type: ADME, Canis lupus familiaris, microsome; settings: read-out: Stability
Cytochrome P450 2D6 = Cytochrome P450 2D6 (Homo sapiens, UniProt P10635); assay: Inhibition of CYP2D6 in liver microsomes (unknown origin) assessed as formation of 1-hydroxybufuralol from bufuralol in presence of NADPH by LC-MS/MS analysis; type: ADME
[15] = Total clearance in rat at 1 mg/kg, iv; type: ADME, organism-based; settings: in vivo
Plasma [16] = assay: Anticoagulant activity in rat plasma assessed as concentration required to double activated partial thromboplastin time; type: functional
Cytochrome P450 2C9 = Cytochrome P450 2C9 (Homo sapiens, UniProt P11712); assay: Inhibition of CYP2C9 in liver microsomes (unknown origin) assessed as formation of 4-hydroxydiclofenac from diclofenac in presence of NADPH by LC-MS/MS analysis; type: ADME
[17] = Oral bioavailability in rat at 10 mg/kg; type: ADME, organism-based; settings: in vivo
[18] = AUCt in dog at 0.3 mg/kg, iv; type: ADME, organism-based, Canis lupus familiaris; settings: in vivo
[19] = Tmax in rat at 10 mg/kg, po; type: ADME, organism-based; settings: in vivo
[20] = Total clearance in dog at 0.3 mg/kg, iv; type: ADME, organism-based, Canis lupus familiaris; settings: in vivo
[21] = Half life in rat at 1 mg/kg, iv; type: ADME, organism-based; settings: in vivo
[22] = Unbound plasma concentration in rat at 10 uM measured after 4 hrs by equilibrium dialysis method; type: ADME, cell-free
[23] = Metabolic stability in rat liver microsomes at 1 uM measured after 20 mins in presence of NADP+ by LC-MS/MS method; type: ADME, microsome; settings: read-out: Stability
[24] = Cmax in rat at 10 mg/kg, po; type: ADME, organism-based; design: dose 10 mg/kg, route oral; settings: in vivo
Cytochrome P450 3A4 [25] = molecular target: T2, Cytochrome P450 3A4; assay: Induction of CYP3A4 in hepatocytes (unknown origin) assessed as midazolam 1-hydroxylation at 0.3 to 10 uM treated for 3 days; type: ADME, cell-based; settings: 72 h
[26] = Apparent permeability in MDCK2-MDR1 cells at 5 uM after 1 hr by LC-MS/MS method; type: ADME, cell-based, Canis lupus familiaris; settings: dog, MDCK-MDR1
Coagulation factor IX [27] = molecular target: Coagulation factor IX (Rattus norvegicus, UniProt P16296); assay: Inhibition of rat coagulation factor 9a
[28] = Solubility of the compound in phosphate buffer at pH 7.4 measured after 1.5 hrs by UV absorbance method; type: physicochemical
[29] = AUCt in rat at 1 mg/kg, iv; type: ADME, organism-based; settings: in vivo
[30] = AUCt in rat at 10 mg/kg, po; type: ADME, organism-based; settings: in vivo
[31] = Apparent permeability in MDCK cells at 5 uM after 1 hr by LC-MS/MS method; type: ADME, cell-based, Canis lupus familiaris; settings: dog
[32] = Half life in dog at 0.3 mg/kg, iv; type: ADME, organism-based, Canis lupus familiaris; settings: in vivo
Plasma [33] = assay: Effect on prothrombin time in human plasma assessed as concentration required to double prothrombin time; type: functional
Plasma [34] = assay: Effect on prothrombin time in rat plasma assessed as concentration required to double prothrombin time; type: functional
Cytochrome P450 1A2 [35] = molecular target: T1, Cytochrome P450 1A2; assay: Induction of CYP1A2 in hepatocytes (unknown origin) assessed as 7-ethoxyresorufin O-dealkylation at 0.3 to 10 uM treated for 3 days; type: ADME, cell-based; settings: 72 h

Sequence of Coagulation factor IX (Homo sapiens, UniProt P00740) (P00740 47-191 limits assumed): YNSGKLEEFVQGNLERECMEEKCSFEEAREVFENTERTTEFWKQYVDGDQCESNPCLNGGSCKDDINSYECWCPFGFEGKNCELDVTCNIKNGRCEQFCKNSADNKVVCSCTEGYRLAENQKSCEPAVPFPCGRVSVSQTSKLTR
Sequence of Coagulation factor IX (Homo sapiens, UniProt P00740) (P00740 227-461 limits assumed): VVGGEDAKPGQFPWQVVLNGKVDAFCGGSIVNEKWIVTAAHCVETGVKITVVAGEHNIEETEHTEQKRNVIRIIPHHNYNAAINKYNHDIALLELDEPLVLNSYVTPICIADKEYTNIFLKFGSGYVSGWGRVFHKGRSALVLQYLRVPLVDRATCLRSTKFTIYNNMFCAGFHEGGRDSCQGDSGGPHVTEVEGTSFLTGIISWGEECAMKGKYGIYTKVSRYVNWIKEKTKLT
Sequence of Coagulation factor X (P00742 41-179 limits assumed): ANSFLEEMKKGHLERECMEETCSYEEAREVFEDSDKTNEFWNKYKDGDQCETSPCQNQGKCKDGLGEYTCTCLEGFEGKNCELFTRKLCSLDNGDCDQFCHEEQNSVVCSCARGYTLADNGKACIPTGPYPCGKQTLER
Sequence of Coagulation factor X (P00742 235-488 limits assumed): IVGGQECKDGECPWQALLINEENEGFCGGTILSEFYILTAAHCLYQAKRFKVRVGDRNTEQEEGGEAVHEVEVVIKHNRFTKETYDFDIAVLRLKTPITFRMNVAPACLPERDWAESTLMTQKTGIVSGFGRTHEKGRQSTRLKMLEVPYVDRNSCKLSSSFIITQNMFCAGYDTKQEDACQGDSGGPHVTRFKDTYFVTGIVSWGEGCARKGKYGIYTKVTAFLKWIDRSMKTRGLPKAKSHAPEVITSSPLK
T2 sequence (P08684 whole entry): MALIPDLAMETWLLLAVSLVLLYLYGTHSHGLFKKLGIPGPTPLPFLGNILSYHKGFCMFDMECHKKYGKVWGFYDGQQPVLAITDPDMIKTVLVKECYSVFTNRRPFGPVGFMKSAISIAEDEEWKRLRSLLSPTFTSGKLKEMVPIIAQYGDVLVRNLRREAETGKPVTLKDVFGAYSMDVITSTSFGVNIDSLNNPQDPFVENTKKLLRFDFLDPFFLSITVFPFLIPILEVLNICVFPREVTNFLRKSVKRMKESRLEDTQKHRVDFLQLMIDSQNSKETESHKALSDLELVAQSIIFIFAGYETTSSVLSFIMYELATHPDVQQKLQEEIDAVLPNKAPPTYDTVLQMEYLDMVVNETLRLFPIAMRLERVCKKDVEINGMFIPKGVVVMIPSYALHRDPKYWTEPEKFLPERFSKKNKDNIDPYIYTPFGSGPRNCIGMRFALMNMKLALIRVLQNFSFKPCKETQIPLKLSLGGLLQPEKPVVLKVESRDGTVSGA
Sequence of Cytochrome P450 2D6 (P10635 whole entry): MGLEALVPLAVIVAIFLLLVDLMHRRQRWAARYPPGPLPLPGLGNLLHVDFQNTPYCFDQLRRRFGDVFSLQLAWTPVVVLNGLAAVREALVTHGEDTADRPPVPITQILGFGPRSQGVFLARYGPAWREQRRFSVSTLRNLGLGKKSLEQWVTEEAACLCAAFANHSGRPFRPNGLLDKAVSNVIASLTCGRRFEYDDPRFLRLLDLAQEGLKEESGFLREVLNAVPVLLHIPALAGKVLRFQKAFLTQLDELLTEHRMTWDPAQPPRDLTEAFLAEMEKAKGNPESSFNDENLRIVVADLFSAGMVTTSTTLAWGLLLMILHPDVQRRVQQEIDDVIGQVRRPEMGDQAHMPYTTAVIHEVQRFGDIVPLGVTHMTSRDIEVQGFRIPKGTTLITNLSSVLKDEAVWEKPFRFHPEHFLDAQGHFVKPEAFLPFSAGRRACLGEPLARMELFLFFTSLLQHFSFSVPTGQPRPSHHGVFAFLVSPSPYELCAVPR
Sequence of Coagulation factor IX (Rattus norvegicus, UniProt P16296) (P16296 40-185 limits assumed): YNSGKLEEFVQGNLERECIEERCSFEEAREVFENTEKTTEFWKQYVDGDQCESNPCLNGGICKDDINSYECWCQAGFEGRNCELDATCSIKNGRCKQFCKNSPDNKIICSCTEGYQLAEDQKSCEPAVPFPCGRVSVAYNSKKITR
Sequence of Coagulation factor IX (Rattus norvegicus, UniProt P16296) (P16296 228-462 limits assumed): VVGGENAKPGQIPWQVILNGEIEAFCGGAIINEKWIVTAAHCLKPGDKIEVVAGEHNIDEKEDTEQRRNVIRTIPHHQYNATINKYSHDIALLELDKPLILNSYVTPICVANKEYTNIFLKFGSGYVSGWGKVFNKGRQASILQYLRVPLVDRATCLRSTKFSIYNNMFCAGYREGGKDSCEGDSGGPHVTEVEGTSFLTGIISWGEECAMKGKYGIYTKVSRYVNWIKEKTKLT
Sequence of Cytochrome P450 2C19 (P33261 whole entry): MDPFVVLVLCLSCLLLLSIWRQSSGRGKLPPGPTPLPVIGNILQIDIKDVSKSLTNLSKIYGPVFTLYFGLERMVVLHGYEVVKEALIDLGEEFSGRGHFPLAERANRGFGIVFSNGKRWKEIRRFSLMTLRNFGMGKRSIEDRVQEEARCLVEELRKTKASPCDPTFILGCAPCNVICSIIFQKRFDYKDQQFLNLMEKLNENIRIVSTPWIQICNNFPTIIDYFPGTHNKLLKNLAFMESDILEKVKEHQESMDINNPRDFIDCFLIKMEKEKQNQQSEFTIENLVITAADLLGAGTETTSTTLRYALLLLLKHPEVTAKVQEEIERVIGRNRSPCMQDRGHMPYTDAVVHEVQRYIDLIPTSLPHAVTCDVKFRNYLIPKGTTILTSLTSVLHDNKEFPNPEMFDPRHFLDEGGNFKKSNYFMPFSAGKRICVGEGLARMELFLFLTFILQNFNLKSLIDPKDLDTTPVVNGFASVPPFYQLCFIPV
Sequence of Cytochrome P450 2C9 (P11712 whole entry): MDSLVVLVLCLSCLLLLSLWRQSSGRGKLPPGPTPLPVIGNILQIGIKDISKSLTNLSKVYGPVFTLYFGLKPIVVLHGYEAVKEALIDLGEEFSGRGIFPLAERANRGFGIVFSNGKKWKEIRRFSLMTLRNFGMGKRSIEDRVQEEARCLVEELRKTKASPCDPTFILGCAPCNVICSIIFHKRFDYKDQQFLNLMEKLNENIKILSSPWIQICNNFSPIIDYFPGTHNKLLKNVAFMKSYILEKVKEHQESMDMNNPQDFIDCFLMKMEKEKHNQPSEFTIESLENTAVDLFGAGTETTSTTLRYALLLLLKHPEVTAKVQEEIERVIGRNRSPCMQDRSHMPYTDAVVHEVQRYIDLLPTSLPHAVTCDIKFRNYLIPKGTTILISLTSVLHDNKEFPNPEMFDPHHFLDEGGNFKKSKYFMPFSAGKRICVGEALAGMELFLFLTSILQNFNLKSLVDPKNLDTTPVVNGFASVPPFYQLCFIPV

IC50 (Coagulation factor X): > 100000 nM
IC50 (Coagulation factor IX [1]): 172 nM
Compound: Nc1noc2c(N3CC[C@@H](NC(=O)c4ccc(-n5cnnc5)cc4Cl)C3)ccc(F)c12

IC50 (Coagulation factor X): > 100000 nM
fraction unbound at 4 h, 10 µM [2]: 0.002
IC50 (Coagulation factor IX [1]): 26 nM
Papp at 5 h, 5 µM [4]: 9.4 ×10⁻⁶ cm/s
Cmax [5]: 380 ng/mL
Compound: Nc1noc2c(N3CC[C@@H](NC(=O)c4ccc(-c5cncnc5)cc4Cl)C3)ncc(Cl)c12
2aPTT (Plasma [3]): 101 µM

Compound: O=C(NC[C@H]1CN(c2ccc(N3CCOCC3=O)cc2)C(=O)O1)c1ccc(Cl)s1
Activity (Rattus norvegicus [6]): Active
Activity (Rattus norvegicus [7]): Active

IC50 (Coagulation factor X): 25000 nM
fraction unbound at 4 h, 10 µM [2]: 0.008
IC50 (Coagulation factor IX [1]): 13 nM
Papp at 5 h, 5 µM [4]: 3.1 ×10⁻⁶ cm/s
Compound: Nc1noc2c(N3CC[C@@H](NC(=O)c4ccc(-n5cnc6ncccc65)cc4Cl)C3)ncc(Cl)c12
2aPTT (Plasma [3]): 28 µM

IC50 (Coagulation factor X): 29000 nM
IC50 (Coagulation factor IX [1]): 47 nM
Compound: Nc1noc2c(N3CC[C@@H](NC(=O)c4ccc(-n5cnnc5)cc4Cl)C3)cc(Cl)c(Cl)c12

IC50 (Coagulation factor X): > 100000 nM
IC50 (Coagulation factor IX [1]): 2200 nM
Compound: Cc1ccc(N2CCC(C)(NC(=O)c3ccc(-n4cnnc4)cc3Cl)C2)c([N+](=O)[O-])c1 (stereo not given)

IC50 (Coagulation factor X): 78000 nM
fraction unbound at 4 h, 10 µM [2]: 0.012
IC50 (Coagulation factor IX [1]): 31 nM
Papp at 5 h, 5 µM [4]: 0.7 ×10⁻⁶ cm/s
Cmax [5]: 120 ng/mL
Compound: Nc1noc2c(N3CC[C@@H](NC(=O)c4ccc(-n5cnnc5)cc4Cl)C3)ncc(Cl)c12

IC50 (Coagulation factor X): > 30000 nM
IC50 (Coagulation factor IX [1]): 32 nM
Compound: Nc1noc2c(N3CC[C@@H](NC(=O)c4ccc(-n5cnnc5)cc4Cl)C3)ccc(Cl)c12

IC50 (Coagulation factor X): > 100000 nM
fraction unbound at 4 h, 10 µM [2]: 0.012
IC50 (Coagulation factor IX [1]): 45 nM
Papp at 5 h, 5 µM [4]: 2.7 ×10⁻⁶ cm/s
Cmax [5]: 100 ng/mL
Compound: Nc1noc2c(N3CC[C@@H](NC(=O)c4ccc(-n5cnnc5C(F)F)cc4Cl)C3)ncc(Cl)c12
2aPTT (Plasma [3]): 32 µM

IC50 (Coagulation factor X): > 100000 nM
IC50 (Coagulation factor IX [1]): 89 nM
Compound: Nc1noc2c(N3CCC(NC(=O)c4ccc(-n5cnnc5)cc4Cl)C3)nccc12 (racemic)

Vd [8]: 1.3 L/kg
IC50 (Cytochrome P450 1A2 [9]): > 10000 nM
remaining at 20 min, 1 µM [10]: 11%
IC50 (Coagulation factor X): 31000 nM
fraction unbound at 4 h, 10 µM [2]: 0.041
IC50 (Cytochrome P450 2C19): > 10000 nM
fraction unbound at 4 h, 10 µM [11]: 0.054
IC50 (Cytochrome P450 3A4 [12]): > 10000 nM
Vd [13]: 0.9 L/kg
remaining at 20 min, 1 µM [14]: 11%
IC50 (Cytochrome P450 2D6): > 10000 nM
clearance [15]: 16.5 mL/min/kg
IC50 (Cytochrome P450 2C9): > 10000 nM
bioavailability [17]: 51%
AUC(0-t) [18]: 1410 ng·h/mL
Tmax [19]: 1 h
IC50 (Coagulation factor IX [1]): 4.9 nM
clearance [20]: 3.5 mL/min/kg
half-life [21]: 0.8 h
fraction unbound at 4 h, 10 µM [22]: 0.051
remaining at 20 min, 1 µM [23]: 24%
Cmax [24]: 1600 ng/mL
Activity (Cytochrome P450 3A4 [25]): Not Active
Papp at 1 h, 5 µM [26]: 5.8 ×10⁻⁶ cm/s
IC50 (Coagulation factor IX [27]): 3.7 nM
Papp at 5 h, 5 µM [4]: 6.5 ×10⁻⁶ cm/s
solubility at 1.5 h [28]: 29 µM (≈ 14 µg/mL)
AUC(0-t) [29]: 1010 ng·h/mL
AUC(0-t) [30]: 5150 ng·h/mL
Papp at 1 h, 5 µM [31]: 14.5 ×10⁻⁶ cm/s
half-life [32]: 4.7 h
Activity (Cytochrome P450 1A2 [35]): Not Active
Compound: Cc1ncn(-c2ccc(C(=O)N[C@H]3[C@H]4CC[C@H]3N(c3ncc(Cl)c5cnoc35)C4)c(Cl)c2)n1
2aPTT (Plasma [3]): 5.8 µM
2aPTT (Plasma [16]): 6.2 µM
2PT (Plasma [33]): >200 µM
2PT (Plasma [34]): >200 µM
